# Assay results from EP4667458A1 (Kanaph Therapeutics Inc., priority 2023, dated 2024).
# pIC50: −log10 of the molar value.
# Target: T1, SOS1 (Homo sapiens, UniProt Q07889)
# T1 construct: adding equal amounts of HIS-SOS1cat (160 nM; Cytoskeleton, US); His; purchased Cytoskeleton, US
# T1 sequence (Q07889 564-1049 limits assumed): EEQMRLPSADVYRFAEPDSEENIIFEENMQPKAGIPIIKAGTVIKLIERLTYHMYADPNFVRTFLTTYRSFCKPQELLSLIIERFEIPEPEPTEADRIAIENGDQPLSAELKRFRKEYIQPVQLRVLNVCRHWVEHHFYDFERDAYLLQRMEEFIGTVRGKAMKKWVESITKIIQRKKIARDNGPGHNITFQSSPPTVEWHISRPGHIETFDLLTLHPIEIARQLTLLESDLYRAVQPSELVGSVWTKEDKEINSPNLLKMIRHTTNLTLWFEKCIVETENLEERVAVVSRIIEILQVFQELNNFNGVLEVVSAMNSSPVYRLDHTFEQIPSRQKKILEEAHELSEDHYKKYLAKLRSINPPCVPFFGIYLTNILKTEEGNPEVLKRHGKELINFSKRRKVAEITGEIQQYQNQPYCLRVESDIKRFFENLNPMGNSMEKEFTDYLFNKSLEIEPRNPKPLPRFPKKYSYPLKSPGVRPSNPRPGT
# Assay: SOS-catalyzed nucleotide exchange assay (HTRF, SOS1-mediated GTP loading of KRAS G12D)
# Format: biochemical
# Details: GST-KRAS G12D, HIS-SOS1cat, EDA-GTP-DY-647P1; compound 128 pM to 10 µM; read-out: SOS-catalyzed nucleotide exchange assay (IC50 range, Grade)
# Experimental: SOS1 activity was measured by SOS1-mediated GTP loading quantification of KRAS^G12D. GTP-loaded KRAS^G12D was detected by HTRF (Homogeneous Time Resolved Fluorescence) using anti-GST terbium (Cisbio, France) as a donor and a fluorescence GTP analogue (EDA-GTP-DY-647P1, [DY-647P1-labeled 2'/3'-O-(2-aminoethyl-carbamoyl)guanosine-5'-triphosphate (Jena bioscience, Germany)]) as an acceptor.
# Assay buffer was composed of 10 mM HEPES pH 7.4, 150 mM NaCl, 5 mM MgCl2, 1 mM DTT, 0.05% BSA Fraction V pH 7.0 (Sigma) and 0.0025% (v/v) Igepal (Sigma). KRAS^G12D working solution was prepared by adding equal amounts of GST-KRAS^G12D (100 nM) and anti-GST-terbium (2 nM; Cisbio, France) to the assay buffer and incubating on ice for 10 minutes. SOS1cat working solution was prepared by adding equal amounts of HIS-SOS1cat (160 nM; Cytoskeleton, US) and EDA-GTP-DY-647P1 (200 nM; Jena bioscience, Germany) to the assay buffer. Control solution was prepared by adding equal volumes of EDA-GTP-DY-647P1 and the assay buffer for normalization control to exclude GEF-independent GTP loading and background signals. In order to induce a reaction, 5 µL of the SOS1cat working solution or the control solution was injected into each well. 5 µL of a compound having various concentrations from 128 pM to 10 µM was added to wells containing the SOS1cat working solution and incubated at room temperature for 10 minutes to bind to SOS1.
# 10 µL of the KRAS^G12D solution was added to each well and incubated for 30 minutes at room temperature while shaking. HTRF was measured using a Thermo Varioskan (excitation 334 nm, emission 665 nm). The IC50 of each inhibitor was analyzed using Graphad Prism.
# The SOS1 inhibitory activity of the Example compounds measured by the above method was evaluated based on the following criteria, and the results are shown in Table 29.
row,Compound,pIC50
1,"C[C@@H](NC(=O)c1ccc(=O)n(-c2ccccc2)n1)c1cccc(C(F)(F)CO)c1 [Example 57, N-[(1R)-1-[3-(1,1-difluoro-2-hydroxy-ethyl)phenyl]ethyl]-6-oxo-1-phenyl-pyridazine-3-carboxamide]",> 6.00
2,"Cc1ccccc1-n1nc(C(=O)N[C@H](C)c2cc(N)cc(C(F)(F)F)c2)ccc1=O [Example 41, N-[(1R)-1-[3-amino-5-(trifluoromethyl)phenyl]ethyl]-1-(o-tolyl)-6-oxo-pyridazine-3-carboxamide]",> 6.00
3,"COc1ccc(-n2nc(C(=O)N[C@H](C)c3cc(N)cc(C(F)(F)F)c3)ccc2=O)cc1 [Example 30, N-[(1R)-1-[3-amino-5-(trifluoromethyl)phenyl]ethyl]-1-(4-methoxyphenyl)-6-oxo-pyridazine-3-carboxamide]",> 6.00
4,"C[C@@H](NC(=O)c1ccc(=O)n(-c2cccnc2)n1)c1cc(N)cc(C(F)(F)F)c1 [Example 26, (R)-N-(1-(3-amino-5-(trifluoromethyl)phenyl)ethyl)-6-oxo-1-(pyridin-3-yl)-1,6-dihydropyridazine-3-carboxamide]",> 6.00
5,"C[C@@H](NC(=O)c1ccc(=O)n(-c2ccccc2)n1)c1cc(N)cc(C(F)(F)F)c1 [Example 16, N-[(1R)-1-[3-amino-5-(trifluoromethyl)phenyl]ethyl]-6-oxo-1-phenyl-pyridazine-3-carboxamide]",> 6.00
6,"C[C@@H](NC(=O)c1ccc(=O)n(C2CC2)n1)c1cc(N)cc(C(F)(F)F)c1 [Example 64, N-[(1R)-1-[3-amino-5-(trifluoromethyl)phenyl]ethyl]-1-cyclopropyl-6-oxo-1,6-dihydropyridazine-3-carboxamide]",5.00 to 6.00
7,"C[C@@H](NC(=O)c1ccc(=O)n(-c2cccc(S(C)(=O)=O)c2)n1)c1cc(N)cc(C(F)(F)F)c1 [Example 37, N-[(1R)-1-[3-amino-5-(trifluoromethyl)phenyl]ethyl]-1-(3-methylsulfonylphenyl)-6-oxo-pyridazine-3-carboxamide]",> 6.00
8,"C[C@@H](NC(=O)c1ccc(=O)n(-c2ccccc2)n1)c1ccc(S(C)(=O)=O)cc1 [Example 12, N-[(1R)-1-(4-methylsulfonylphenyl)ethyl]-6-oxo-1-phenyl-pyridazine-3-carboxamide]",< 5.00
9,"CC(=O)Nc1cccc(-n2nc(C(=O)N[C@H](C)c3cc(N)cc(C(F)(F)F)c3)ccc2=O)c1 [Example 35, (R)-1-(3-acetamidophenyl)-N-(1-(3-amino-5-(trifluoromethyl)phenyl)ethyl)-6-oxo-1,6-dihydropyridazine-3-carboxamide]",> 6.00
10,"Cc1cc(=O)n(-c2ccccc2)nc1C(=O)N[C@H](C)c1cc(N)cc(C(F)(F)F)c1 [Example 49, N-[(1R)-1-[3-amino-5-(trifluoromethyl)phenyl]ethyl]-4-methyl-6-oxo-1-phenyl-pyridazine-3-carboxamide]",5.00 to 6.00
11,"C[C@@H](NC(=O)c1ccc(=O)n(-c2ccccc2)n1)c1cccc(S(C)(=O)=O)c1 [Example 11, N-[(1R)-1-(3-methylsulfonylphenyl)ethyl]-6-oxo-1-phenyl-pyridazine-3-carboxamide]",5.00 to 6.00
12,"C[C@@H](NC(=O)c1ccc(=O)n(-c2ccccc2)n1)c1ccc(Br)cc1 [Example 6, (R)-N-(1-(4-bromophenyl)ethyl)-6-oxo-1-phenyl-1,6-dihydropyridazine-3-carboxamide]",< 5.00
13,"C[C@@H](NC(=O)c1ccc(=O)n(-c2cccc3ccccc23)n1)c1cc(N)cc(C(F)(F)F)c1 [Example 25, (R)-N-(1-(3-amino-5-(trifluoromethyl)phenyl)ethyl)-1-(naphthalen-1-yl)-6-oxo-1,6-dihydropyridazine-3-carboxamide]",> 6.00

# Other lines, results leading:
row,pIC50,Compound
1,> 6.00,"C[C@@H](NC(=O)c1ccc(=O)n(-c2cccc(C(=O)OC(C)(C)C)c2)c1)c1cc(N)cc(C(F)(F)F)c1 [Example 72, Tert-butyl 3-(5-{[(1R)-1-[3-amino-5-(trifluoromethyl)phenyl]ethyl]carbamoyl}-2-oxo-1,2-dihydropyridin-1-yl)benzoate]"
2,5.00 to 6.00,"C[C@@H](NC(=O)c1ccc(=O)n([C@H]2CCCC[C@@H]2O)n1)c1cc(N)cc(C(F)(F)F)c1 [Example 125, N-((R)-1-(3-amino-5-(trifluoromethyl)phenyl)ethyl)-1-((1S,2S)-2-hydroxycyclohexyl)-6-oxo-1,6-dihydropyridazine-3-carboxamide]"
3,> 6.00,"C[C@@H](NC(=O)c1ccc(=O)n(-c2cc(F)ccc2F)c1)c1cc(N)cc(C(F)(F)F)c1 [Example 96, N-[(1R)-1-[3-amino-5-(trifluoromethyl)phenyl]ethyl]-1-(2,5-difluorophenyl)-6-oxo-1,6-dihydropyridine-3-carboxamide]"
4,> 6.00,"C[C@@H](NC(=O)c1ccc(=O)n(-c2cccc(N3CCNC3=O)c2)c1)c1cc(N)cc(C(F)(F)F)c1 [Example 85, N-[(1R)-1-[3-amino-5-(trifluoromethyl)phenyl]ethyl]-6-oxo-1-[3-(2-oxoimidazolidin-1-yl)phenyl]-1,6-dihydropyridine-3-carboxamide]"
5,> 6.00,"CC(=O)N1CC=C(n2nc(C(=O)N[C@H](C)c3cc(N)cc(C(F)(F)F)c3)ccc2=O)CC1 [Example 68, 1-(1-acetyl-1,2,3,6-tetrahydropyridin-4-yl)-N-[(1R)-1-[3-amino-5-(trifluoromethyl)phenyl]ethyl]-6-oxo-1,6-dihydropyridazine-3-carboxamide]"
6,> 6.00,"C[C@@H](NC(=O)c1ccc(=O)n(-c2cccc(NC(=O)C3CC3)c2)c1)c1cc(N)cc(C(F)(F)F)c1 [Example 130, N-[(1R)-1-[3-amino-5-(trifluoromethyl)phenyl]ethyl]-1-(3-cyclopropaneamidophenyl)-6-oxo-1,6-dihydropyridine-3-carboxamide]"
7,> 6.00,"C[C@@H](NC(=O)c1ccc(=O)n(-c2cccc(CO)c2)c1)c1cc(N)cc(C(F)(F)F)c1 [Example 71, N-[(1R)-1-[3-amino-5-(trifluoromethyl)phenyl]ethyl]-1-[3-(hydroxymethyl)phenyl]-6-oxo-1,6-dihydropyridine-3-carboxamide]"
8,> 6.00,"CNCc1ccc(Cl)cc1-c1cnc([C@@H](C)NC(=O)c2ccc(=O)n(-c3ccccc3F)n2)s1 [Example 137, N-[(1R)-1-[5-[5-chloro-2-(methylaminomethyl)phenyl]thiazol-2-yl]ethyl]-1-(2-fluorophenyl)-6-oxo-pyridazine-3-carboxamide]"
9,> 6.00,"C[C@@H](NC(=O)c1ccc(=O)n(-c2ccncc2)c1)c1cc(N)cc(C(F)(F)F)c1 [Example 73, N-[(1R)-1-[3-amino-5-(trifluoromethyl)phenyl]ethyl]-2-oxo-2H-[1,4'-bipyridine]-5-carboxamide]"
10,5.00 to 6.00,"C[C@@H](NC(=O)c1ccc(=O)n(C2CCN(S(C)(=O)=O)CC2)n1)c1cc(N)cc(C(F)(F)F)c1 [Example 120, N-[(1R)-1-[3-amino-5-(trifluoromethyl)phenyl]ethyl]-1-(1-methanesulfonylpiperidin-4-yl)-6-oxo-1,6-dihydropyridazine-3-carboxamide]"
11,> 6.00,"C[C@@H](NC(=O)c1ccc(=O)n(C2=CCN(C)CC2)n1)c1cc(N)cc(C(F)(F)F)c1 [Example 126, N-[(1R)-1-[3-amino-5-(trifluoromethyl)phenyl]ethyl]-1-(1-methyl-1,2,3,6-tetrahydropyridin-4-yl)-6-oxo-1,6-dihydropyridazine-3-carboxamide]"
12,5.00 to 6.00,"C[C@@H](NC(=O)c1ccc(=O)n(C23CC(C2)C3)n1)c1cc(N)cc(C(F)(F)F)c1 [Example 70, N-[(1R)-1-[3-amino-5-(trifluoromethyl)phenyl]ethyl]-1-{bicyclo[1.1.1]pentan-1-yl}-6-oxo-1,6-dihydropyridazine-3-carboxamide]"
13,5.00 to 6.00,"C[C@@H](NC(=O)c1ccc(=O)n(C2=CCCN(S(C)(=O)=O)C2)n1)c1cc(N)cc(C(F)(F)F)c1 [Example 69, N-[(1R)-1-[3-amino-5-(trifluoromethyl)phenyl]ethyl]-1-(1-methanesulfonyl-1,2,5,6-tetrahydropyridin-3-yl)-6-oxo-1,6-dihydropyridazine-3-carboxamide]"
